Data: the NIST ThermoML archive (doi:10.1021/je700535q)

Experiment: xn = mol fraction of the nth substance listed
Conditions: 101 kPa, Liquid, x1 = 0

SMILES	binary diffusion coefficient (333.2 K)	binary diffusion coefficient (353.2 K)	binary diffusion coefficient (373.2 K)	binary diffusion coefficient (393.2 K)	binary diffusion coefficient (413.2 K)	binary diffusion coefficient (423.2 K)	binary diffusion coefficient (453.2 K)	binary diffusion coefficient (473.2 K)	binary diffusion coefficient (433.2 K)	binary diffusion coefficient (443.2 K)	binary diffusion coefficient (463.2 K)	binary diffusion coefficient (313.2 K)	binary diffusion coefficient (418.2 K)
c1ccc2nc3ccccc3cc2c1 [acridine] + CCCCCCCCCCCCCC	1.27e-09 m2/s	1.55e-09 m2/s	2e-09 m2/s	2.4e-09 m2/s	2.93e-09 m2/s	3.74e-09 m2/s	3.96e-09 m2/s	5.08e-09 m2/s					
c1ccc2cc3ccccc3cc2c1 [anthracene] + CCCCCCCCCCCCCC	9.4e-10 m2/s	1.36e-09 m2/s	1.38e-09 m2/s	2.03e-09 m2/s			5.56e-09 m2/s		3.43e-09 m2/s	4.57e-09 m2/s			
c1ccc2sccc2c1 [benzo[b]thiophene] + CCCCCCCCCCCCCC	1.19e-09 m2/s	1.65e-09 m2/s	2.1e-09 m2/s	2.51e-09 m2/s	3.19e-09 m2/s	3.83e-09 m2/s	4.77e-09 m2/s						
c1ccc2c(c1)sc1ccccc12 [dibenzothiophene] + CCCCCCCCCCCCCC	1.06e-09 m2/s	1.41e-09 m2/s		2.13e-09 m2/s	2.61e-09 m2/s	3.14e-09 m2/s	3.96e-09 m2/s		3.41e-09 m2/s		5.01e-09 m2/s		
c1ccc2ccccc2c1 [naphthalene] + CCCCCCCCCCCCCC	1.42e-09 m2/s	1.86e-09 m2/s	2.28e-09 m2/s				5.56e-09 m2/s		4.64e-09 m2/s			1.03e-09 m2/s	3.69e-09 m2/s
